Assay results: article PMC12119672, “Development and evaluation of [^11C]DPA-813 and [^18F]DPA-814: novel TSPO PET tracers insensitive to human single nucleotide polymorphism rs6971” (European Journal of Nuclear Medicine and Molecular Imaging, 2025)
Several values for one entry are separate records, joined by “and”; a condition that tells them apart may be missing. Equal values may be shown once. Marks after values point to notes of the source that are not given here.

Key:
[1] = biological target: T1, WT human TSPO (Homo sapiens, UniProt P30536); assay: Competition radioligand binding vs [3H]PK 11195, membranes of transfected HEK-293T cells (WT TSPO); conditions: vs [3H]PK 11195 (10 nM), HEK-293T membranes, mean ± SEM; read-out: Ki WT hTSPO
T1 construct: expressed in transfected cells
Protocol: (§1) Binding affinities (Ki) to wild-type (WT) and A147T human TSPO were assessed using a previously published method. HEK-293T cells were stably transfected with WT and A147T TSPO. Membranes were isolated from each cell line using an Ultra-Turrax hand-held homogeniser. These cells have been previously validated as an in vitro model for low- and high-affinity TSPO binding. […] Non-specific binding was determined using a saturating concentration (1 µM) of non-tritiated PK 11195. This non-specific binding contributed less than 10% of total binding. Reactions were halted by filtering through a 96-well glass-fibre filter plate (Millipore), followed by eight washes with ice-cold 50 mM Tris HCl. Microscint 0 was added to the plate and resultant radioactivity-related photons were collected by a Microbeta 2450 (PerkinElmer). Ki values were fit to a competition binding curve fit on non-specific binding-corrected data using GraphPad Prism 10.0 (GraphPad). Results are presented as mean ± standard error of the mean (SEM) from at least three independent experiments. Binding affinities (Ki) to rat TSPO were measured in duplicate by Eurofins Panlabs Discovery Services (assay #226700) (Supplementary Fig. 12). Single-dose (10 µM) off-target in vitro screening was performed in duplicate by Eurofins Panlabs Discovery Services (Supplementary Table 5).
(§2) In vitro binding affinities (Ki) for human TSPO were initially assessed using a competition radioligand assay against [^3H]PK 11195 in our well-characterised assay using membranes isolated from transfected HEK-293T cells overexpressing either WT or A147T TSPO [32]. This structure-activity relationship study will be reported in a separate publication. […] Data for DPA-713 and DPA-714 are included for comparison.

[2] = distribution coefficient; cited from earlier work
[3] = biological target: T2, A147T human TSPO (Homo sapiens, UniProt P30536); assay: Competition radioligand binding vs [3H]PK 11195, membranes of transfected HEK-293T cells (A147T TSPO); conditions: vs [3H]PK 11195 (10 nM), HEK-293T membranes, mean ± SEM; read-out: Ki A147T hTSPO
T2 construct: expressed in transfected cells
Protocol: as §1, §2

[4] = Ex vivo metabolite analysis (plasma and brain) in wild-type rats; parameters: species or system rat; conditions: i.v.
Protocol: Metabolite analysis was conducted following the method outlined in a previous study. Wistar/RccHan (WIST) rats (Inotiv, the Netherlands) received intravenous injections of either [^11C]DPA-813 (30–50 MBq) or [^18F]DPA-814 (20–30 MBq). Rats were euthanized at 5, 15, and 45 min post-injection (n = 4 per time point). Plasma was separated from blood then processed through a C18 Sep-Pak (Waters, Milford, MA, USA). After washing with 3 mL of water to isolate the polar fraction, the non-polar fraction was eluted using 2 mL of methanol and 1 mL of water and subsequently analyzed by HPLC. The brain tissue was collected and homogenized in a mixture of MeCN and H2O (50/50, 4 mL) before centrifugation (5 min, 4000 rpm, 20 °C, Hettich Universal 32). The obtained supernatant was separated from the precipitate and analyzed via HPLC. Analytical HPLC was performed using a Dionex UltiMate 3000 HPLC system equipped with Chromeleon software (version 6.8), utilizing a Gemini C18 5-µm (10 × 250 mm) column (Phenomenex, Torrance, CA, USA). All fractions were assessed for radioactivity using a Wizard Gamma counter 1470 or 2480 (Wallac/PerkinElmer, Waltham, MA, USA).

[5] = biological target: T3, rat TSPO (Rattus norvegicus, UniProt P16257); assay: Competitive binding to rat TSPO vs [3H]PK 11195 (Eurofins assay #226700, rat heart membranes); conditions: vs DPA-713 / DPA-714
T3 construct: Heart of male Wistar derived rats weighing 175 ± 25 g are used to prepare peripheral benzodiazepine membrane receptors [TSPO]; tissue Eurofins Panlabs Discovery Services assay #226700; host or cells: rat heart (male Wistar derived)
Protocol: as §1
Supplementary Figure 12 Dose-response curves and binding affinities of DPA-813 and DPA-814 showing competitive binding to rat TSPO vs [^3H]PK 11195. Method from Eurofins: Heart of male Wistar derived rats weighing 175 ± 25 g are used to prepare peripheral benzodiazepine membrane receptors [TSPO] in modified Tris-HCl buffer pH 7.5. A 0.25 mg aliquot is incubated with 0.3 nM [^3H]PK 11195 for 15 minutes at 25 °C. Non-specific binding is estimated in the presence of 100 μM Dipyridamole. Membranes are filtered and washed, the filters are then counted to determine [^3H]PK 11195 specifically bound.

[6] = system: EAE rat model (spinal cord); assay: PET imaging in the EAE rat model; type: in vivo; conditions: dynamic PET 60 min, peak of clinical symptoms
[7] = system: TSPO in human MS tissues; assay: Autoradiography on genotyped human MS brain tissue (HAB, MAB, LAB); type: binding
Excerpt: Brain tissues from MS patients (n = 7) were used in this study and were obtained from the MS centre of the Amsterdam University Medical Centers (AUMC). For some patient material, several brain tissues were available. The MS centre received permission from the Ethical Committee of the AUMC (Amsterdam, The Netherlands) to perform autopsies for tissue use and access to medical records for research purposes. All patients and controls, or their next of kin, had given informed consent for autopsy and use of brain tissue for research purposes.
TSPO rs6971 SNP was determined with a Taqman assay (C_2512465_20, ThermoFisher Scientific, The Netherlands). DNA was isolated from human MS brain tissue cryosections using a QIAmp mini kit from Qiagen according to the manufacturer’s recommendation. The concentration of the isolated DNA was determined on a nanodrop (NanoVue Plus, Biochrom). DNA concentration ranged from 45 to 246 µg/mL. QPCR was performed on a QuantStudio (Applied Biosystems, The Netherlands). Synthetic DNA (300 bp) for the two TSPO SNP alleles, rs6971-A, and rs6971-G, was used as a control for the Taqman assay. DNA samples were diluted 1/100 in milliQ water, and 4.5 µL was used for the QPCR. Control DNA sequences were reconstituted in 10 ng/mL in milliQ water. The final QPCR solution contained 5 µL TaqPath proAmp master mix (ThermoFisher Scientific, The Netherlands), 0.5 µL Taqman SNP, and 4.5 µL DNA. Results of the Taqman assay are summarised in Supplementary Tables 4 and Supplementary Fig. 2.
Human MS tissue cryosections (20 μm) were mounted on glass slides, air-dried, and stored at − 80 °C until needed. Prior to use, the sections were washed three times in PBS for 5 min each, then dried under an airflow. […] For blocking experiments, tissue sections were co-incubated with PK 11195 (10 µM) and the tracer. After incubation, sections were washed for 90 s three times each in ice-cold PBS and then dipped in deionized water twice. The sections were air-dried and exposed to a phosphor screen BAS-IP SR 2025 (General Electric, Eindhoven, The Netherlands). Phosphor screens were subsequently imaged using a Typhoon FLA 7000 imager (General Electric, Eindhoven, The Netherlands), and signal intensity was quantified using ImageLab software (BioRad, Lunteren, The Netherlands).

[8] = Ex vivo biodistribution in wild-type rats; parameters: species or system rat; conditions: i.v.
Protocol: Wistar/RccHan (WIST) rats from Inotiv, the Netherlands, received intravenous injections via a tail vein catheter of either [^11C]DPA-813 (30–50 MBq) or [^18F]DPA-814 (20–30 MBq). The rats were euthanized at 5, 15, and 45 min post-injection (n = 4 per time point). Blood, heart, lungs, liver, spleen, kidney, urine, bone, brain, duodenum, small intestine, skin, and muscle were collected, weighed, and their radioactivity measured using a Wizard Gamma counter 1470 or 2480 (Wallac/PerkinElmer, Waltham, MA, USA). Entire organs were collected, except for larger organs like the liver and lungs, where only a portion was dissected. The radioactivity uptake in each organ was expressed as the percentage of the injected dose per gram of tissue (%ID/g).

T1 sequence (P30536 whole entry T147A): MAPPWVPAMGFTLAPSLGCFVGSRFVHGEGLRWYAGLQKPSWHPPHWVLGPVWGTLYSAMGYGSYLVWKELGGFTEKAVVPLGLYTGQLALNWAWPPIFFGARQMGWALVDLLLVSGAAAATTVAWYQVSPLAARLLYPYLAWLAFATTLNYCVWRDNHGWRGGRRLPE
T2 sequence (P30536 whole entry, stated change not applied): as the sequence (P30536 whole entry T147A) above, with A147T counted along it

Compound: CCN(CC)C(=O)Cc1c(-c2ccc(OCCF)cc2)nn2c(C)cc(C)nc12 [DPA-714, reference compound]
- Ki [1]: 0.0209 ± 0.005 µM
- logD7.4 [2]: 2.4 ^b
- Ki [3]: 0.26 ± 0.0936 µM

Compound: CCN(CC)C(=O)Cc1c(-c2ccc(OC)cc2)nn2c(C)cc(C)nc12 [DPA-713]
- logD7.4 [2]: 2.4 ^b

Compound: Cc1cc(C)n2nc(-c3ccc(OCC[18F])cc3)c(CC(=O)N(C)c3ccccc3)c2n1 [[^18F]DPA-814]
- Brain, Parent (intact tracer) ([4]; 5 min post-injection): 99.5 ± 0.2%
- Plasma, Parent (Intact tracer) ([4]; 5 min post-injection): 88.1 ± 8.5%
- Brain, Parent (intact tracer) ([4]; 15 min post-injection): 99.5 ± 0.3%
- Plasma, Parent (Intact tracer) ([4]; 15 min post-injection): 89.4 ± 0.9%
- Brain, Parent (intact tracer) ([4]; 45 min post-injection): 99.3 ± 0.3%
- Plasma, Parent (Intact tracer) ([4]; 45 min post-injection): 79.1 ± 6.6% and 79%
- higher affinity to rat TSPO compared to the parent compound [5]: 35 fold
- higher uptake (AUC of time activity curve) in the spinal cord of EAE rats compared to CFA control [6]: 21%
- ratio of the binding quantifications [18F]DPA-814/[18F]DPA-714 ([7]; HAB human MS tissue): 0.9 ± 0.1
- ratio of the binding quantifications [18F]DPA-814/[18F]DPA-714 ([7]; LAB human MS tissue): 12.3 and 12
- ratio of the binding quantifications [18F]DPA-814/[18F]DPA-714 ([7]; MAB human MS tissue): 1.5 ± 0.2
- Biodistribution, Blood ([8]; 5 min post-injection): 0.41 ± 0.2 %ID/g
- Biodistribution, Bone ([8]; 5 min post-injection): 0.27±0.1 %ID/g
- Biodistribution, Brain ([8]; 5 min post-injection): 0.25 ± 0.03 %ID/g
- Biodistribution, Duodenum ([8]; 5 min post-injection): 1.44±0.1 %ID/g
- Biodistribution, Heart ([8]; 5 min post-injection): 3.31±0.3 %ID/g
- Biodistribution, Kidney ([8]; 5 min post-injection): 3.81±0.5 %ID/g
- Biodistribution, Liver ([8]; 5 min post-injection): 1.82±0.5 %ID/g
- Biodistribution, Lungs ([8]; 5 min post-injection): 21.91±1. %ID/g
- Biodistribution, Skin ([8]; 5 min post-injection): 0.09±0.0 %ID/g
- Biodistribution, Small intestine ([8]; 5 min post-injection): 0.92±0.1 %ID/g
- Biodistribution, Tail ([8]; 5 min post-injection): 6.89±9.8 %ID/g
- Biodistribution, Urine ([8]; 5 min post-injection): 0.01±0.0 %ID/g
- Biodistribution, muscle ([8]; 5 min post-injection): 0.05±0.0 %ID/g
- Biodistribution, spleen ([8]; 5 min post-injection): 3.00±0.6 %ID/g
- Biodistribution, Blood ([8]; 15 min post-injection): 0.31±0.1 %ID/g
- Biodistribution, Bone ([8]; 15 min post-injection): 0.29±0.1 %ID/g
- Biodistribution, Brain ([8]; 15 min post-injection): 0.28±0.0 %ID/g
- Biodistribution, Duodenum ([8]; 15 min post-injection): 1.71±0.2 %ID/g
- Biodistribution, Heart ([8]; 15 min post-injection): 4.39±0.2 %ID/g
- Biodistribution, Kidney ([8]; 15 min post-injection): 4.59±0.6 %ID/g
- Biodistribution, Liver ([8]; 15 min post-injection): 2.56 ± 0.2 %ID/g
- Biodistribution, Lungs ([8]; 15 min post-injection): 24.43±2. %ID/g
- Biodistribution, Skin ([8]; 15 min post-injection): 0.12±0.1 %ID/g
- Biodistribution, Small intestine ([8]; 15 min post-injection): 1.26±0.1 %ID/g
- Biodistribution, Tail ([8]; 15 min post-injection): 0.70±0.2 %ID/g
- Biodistribution, Urine ([8]; 15 min post-injection): 0.01±0.0 %ID/g
- Biodistribution, muscle ([8]; 15 min post-injection): 0.07±0.0 %ID/g
- Biodistribution, spleen ([8]; 15 min post-injection): 4.85±0.2 %ID/g
- Biodistribution, Blood ([8]; 45 min post-injection): 0.15 ± 0.01 %ID/g
- Biodistribution, Bone ([8]; 45 min post-injection): 0.22±0.0 %ID/g
- Biodistribution, Brain ([8]; 45 min post-injection): 0.20 ± 0.02 %ID/g
- Biodistribution, Duodenum ([8]; 45 min post-injection): 1.43±0.1 %ID/g
- Biodistribution, Heart ([8]; 45 min post-injection): 4.05±0.3 %ID/g
- Biodistribution, Kidney ([8]; 45 min post-injection): 4.10±0.2 %ID/g
- Biodistribution, Liver ([8]; 45 min post-injection): 1.97±0.4 %ID/g
- Biodistribution, Lungs ([8]; 45 min post-injection): 18.05±3. %ID/g
- Biodistribution, Skin ([8]; 45 min post-injection): 0.12±0.0 %ID/g
- Biodistribution, Small intestine ([8]; 45 min post-injection): 1.23±0.2 %ID/g
- Biodistribution, Tail ([8]; 45 min post-injection): 1.30±0.5 %ID/g
- Biodistribution, Urine ([8]; 45 min post-injection): 0.08±0.1 %ID/g
- Biodistribution, muscle ([8]; 45 min post-injection): 0.08±0.0 %ID/g
- Biodistribution, spleen ([8]; 45 min post-injection): 5.45±1.6 %ID/g
